Data on one compound can be found in patent US12037375B2, “Protein variant and composition for treating neurodegenerative disease using the same” (KOREA UNIVERSITY RESEARCH AND BUSINESS FOUNDATION, priority 2021, dated 2024).

This data set relates to SH-SY-5Y neuroblastoma cells. Nature of the data set: Cell viability by MTT assay. In kind it is cell-based. The note with it: FIG. 4. For orientation: Formazan colour is commonly taken as a measure of viable cells.

Protocol: SH-SY-5Y neuroblastoma cells were purchased from the Korean Cell Line Bank (Seoul, South Korea) and incubated in a 1:1 mixture of Dulbecco's modified eagle medium/F-12 nutrient mixture ham (DMEM/F-12; WelGENE) supplemented with 10% fetal bovine serum (FBS; Capricorn Scientific GmbH, Ebsdorfergrund, Germany) and 1% antibiotic (10,000 U/mL penicillin G, 10,000 μg/mL streptomycin and 25 μg/mL amphotericin B; Hyclone, Logan, UT, USA). The antibiotic was sterilized through a 0.2 μm filter before use and the cells were incubated at 37° C. under humid conditions including 5% CO2.
Specifically, 15,000 cells were grown in each well of a 96-well plate and incubated for 24 hours. […] Then, the MTT solution was added to the medium and incubated at 37° C. for 3 hours to form the MTT-formazan product. The amount of the product was quantified as the extent of absorption at a wavelength of 540 nm.
Each test was conducted on three samples at a time and the entire test was repeated three times to ensure reproducibility.
Specifically, 15,000 cultured neuroblastoma were added with each of 1 uM of a monomer protein and 1 uM of a fibrous protein, and incubated for 2 days, and then the change in cytotoxicity was measured using MTT reagent.

Take `CC[C@H](C)[C@H](NC(=O)[C@H](C)NC(=O)CNC(=O)[C@H](CCCCN)NC(=O)[C@H](CC(N)=O)NC(=O)[C@H](CO)NC(=O)CNC(=O)[C@@H](NC(=O)[C@H](CC(=O)O)NC(=O)[C@H](CCC(=O)O)NC(=O)[C@H](C)NC(=O)[C@H](Cc1ccccc1)NC(=O)[C@H](CC(N)=O)NC(=O)[C@@H](NC(=O)[C@H](CC(C)C)NC(=O)[C@H](CCCCN)NC(=O)[C@H](CCC(N)=O)NC(=O)[C@H](Cc1c[nH]cn1)NC(=O)[C@H](Cc1c[nH]cn1)NC(=O)[C@@H](NC(=O)[C@H](CCC(=O)O)NC(=O)[C@H](Cc1ccc(O)cc1)NC(=O)CNC(=O)[C@H](CO)NC(=O)[C@H](CC(=O)O)NC(=O)[C@H](Cc1c[nH]cn1)NC(=O)[C@H](CCCNC(=N)N)NC(=O)[C@H](Cc1ccccc1)NC(=O)[C@H](CCC(=O)O)NC(=O)[C@H](C)NC(=O)[C@@H](N)CC(=O)O)C(C)C)C(C)C)C(C)C)C(=O)N[C@@H](CC(N)=O)C(=O)NCC(=O)N[C@@H](CC(N)=O)C(=O)N[C@@H](CCSC)C(=O)N[C@H](C(=O)NCC(=O)NCC(=O)N[C@H](C(=O)N[C@H](C(=O)N[C@H](C(=O)N[C@@H](CC(N)=O)C(=O)O)[C@@H](C)CC)C(C)C)C(C)C)C(C)C`: the cytotoxicity entry is listed as “reduced cytotoxicity”.
